Reference: PMC9139979, “Features of ZED1227: The First-In-Class Tissue Transglutaminase Inhibitor Undergoing Clinical Evaluation for the Treatment of Celiac Disease” (Cells, 2022)
“Also recorded” adds a separate entry of the source.

Columns and labels:
[1] = Reactivity towards thiols (excess glutathione); type: physicochemical; details: 160-fold excess GSH, 25 °C, after 48 h
Method: To exclude undesired reactions of ZED1227 with biological thiols, an investigation was performed with the tripeptide glutathione (GSH) as a surrogate. ZED1227 (60 μM) was incubated with a 160-fold excess of glutathione (10,000 μM) in aqueous media [containing 7% (v/v) tetrahydrofuran and 13% (v/v) methanol] at ambient temperature (25 °C). The parent compound and the GSH-adduct formed after 48 h were determined by HPLC (vide supra).

[2] = tested on: healthy female and male volunteers; assay: Phase 1 clinical trial in healthy individuals; type: in vivo, human
Method: The phase 1 clinical trial involved more than 100 healthy individuals exposed to up to 500 mg of ZED1227. […] Accordingly, the new chemical entity was progressed to a phase 2a clinical study. The efficacy and safety of a 6-week treatment with ZED1227 was assessed in a randomized, double-blind, placebo-controlled, dose-finding trial at three dose levels (10, 50, 100 mg). In this trial, adult patients with well-controlled celiac disease were challenged with 3 g daily gluten intake to assess the protective effect of ZED1227 on the mucosa. […] Based on the promising results a phase 2b study was initiated in celiac disease patients suffering from symptoms despite following a “gluten-free diet”—essentially an adjunct treatment. There will be no gluten challenge in this “real-life” study, which aims to further substantiate the protective effect of ZED1227 and impact on quality of life in celiac disease patients. It remains to be seen whether the promising clinical data obtained so far translate into a viable, commercially successful drug for patient benefit.

Caco-2 cells = assay: EZ4U viability assay, Caco-2; type: cell-based; details: up to 1,000 μM, 48 h
Method: Cytotoxicological analysis of ZED1227 was performed using Huh7 (human liver carcinoma, CLS Cell Lines Service GmbH, Eppelheim, Germany) and Caco-2 cells (human epithelial colorectal adenocarcinoma, Sigma Aldrich, Taufkirchen, Germany) with respect to the effect on proliferation and viability, according to the assay protocols provided by the manufacturers of the respective kits. The Cell Proliferation ELISA (BrdU, colorimetric) was purchased from Roche (Mannheim, Germany), whereas the Cell Proliferation and Cytotoxicity Assay EZ4U was purchased from Biomedica (Vienna, Austria). […]
The EZ4U assay (determination of viability) was performed by incubating the cells with ZED1227 working solution (1% DMSO in culture medium) up to a concentration of 1,000 μM for 48 h, followed by addition of a yellow tetrazolium reagent (not further specified) into the culture medium. The non-toxic tetrazolium salts were reduced to red-colored formazan which was quantified spectrophotometrically. […]

[3] = Stability in PBS and artificial gastric and intestinal fluid (residual parent compound); type: physicochemical; details: for Stability in PBS/saline (residual parent compound): initial 100 μM
Method: The logD value (distribution coefficient) of the compound was determined by means of the shake flask method, measuring the distribution of the solute in octanol and phosphate-buffered saline (PBS, pH 7.4). The concentration of ZED1227 in the immiscible solvents was determined by HPLC (vide supra). The stability in PBS (pH 7.4 or acidified to pH 5.0), in artificial gastric, and intestinal fluid was calculated as the percentage of residual parent compound after incubation for 24 h at 37 °C, using an initial concentration of 100 μM.

CCC(CC)CNC(=O)Cn1cccc(NC(=O)[C@H](CC/C=C/C(=O)OC)NC(=O)c2cncn2C)c1=O [ZED1227, (S,E)-Methyl 7-(1-(2-(2-ethylbutylamino)-2-oxoethyl)-2-oxo-1,2-dihydropyridin-3-ylamino)-6-(1-methyl-1H-imidazole-5-carboxamido)-7-oxohept-2-enoate]
Reactivity towards excess glutathione: parent drug compound recovery ([1]; 60 μM compound): 98% parent drug compound recovery (after 48 h) | Glutathione-adduct formed [1]: 2% | Safety and tolerability, phase 1 ([2]; more than 100 healthy individuals, up to 500 mg, EudraCT 2014-003044-13 and 2015-005283-42): safe and well-tolerated | Overall safety and tolerability, phase 1 and phase 2a ([2]; more than 100 healthy volunteers and 123 patients in verum groups): safe and well-tolerated | Cytotoxicity: Viability, Caco-2 cells (Caco-2 cells): not cytotoxic up to 1,000 μM; also recorded: no effect up to 1,000 μM no effect up to 1,000 μM no effect up to 1,000 μM no effect up to 1,000 μM | Recovery at low pH and in simulated gastric and intestinal fluid ([3]; after 24 h, summary statement): > 80% | Stability in PBS/saline (residual parent compound) ([3]; pH 5.0, 24 h, 37 °C): 89% | Stability in PBS/saline (residual parent compound) ([3]; pH 7.4, 24 h, 37 °C): 10% | Stability in artificial gastric fluid (residual parent compound) ([3]; simulated gastric fluid pH 1.2, 24 h, 37 °C): 95% | Stability in artificial intestinal fluid (residual parent compound) ([3]; simulated intestinal fluid pH 6.5, 24 h, 37 °C): 82%
